Tests used:
HMOX2 = molecular target: T1, HMOX2 (Homo sapiens, UniProt P30519); experiment: direct LC-MS/MS profiling of modified tryptic peptides; type: cell-based; conditions: covalent at Cys282; H358 cells, […] AMG510, […] h (methods print […] h)
T1 sequence (P30519 2-316): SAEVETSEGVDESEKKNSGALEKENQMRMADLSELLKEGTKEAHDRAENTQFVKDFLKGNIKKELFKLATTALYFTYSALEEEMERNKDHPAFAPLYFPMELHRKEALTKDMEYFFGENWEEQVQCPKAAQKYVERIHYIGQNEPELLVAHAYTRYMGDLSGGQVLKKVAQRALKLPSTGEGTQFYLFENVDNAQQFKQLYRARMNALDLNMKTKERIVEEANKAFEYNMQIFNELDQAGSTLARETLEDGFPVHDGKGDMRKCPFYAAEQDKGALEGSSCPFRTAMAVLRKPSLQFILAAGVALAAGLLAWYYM

Ank2; ANK2 = Ank2; ANK2 (Mus musculus, UniProt Q8C8R3); experiment: anti-AMG510 peptide IP and LC-MS/MS of heart tissue; conditions: covalent at Cys3737; mice dosed orally […] mg/kg/day for […] days
Chain of Ank2; ANK2 (Q8C8R3 whole entry): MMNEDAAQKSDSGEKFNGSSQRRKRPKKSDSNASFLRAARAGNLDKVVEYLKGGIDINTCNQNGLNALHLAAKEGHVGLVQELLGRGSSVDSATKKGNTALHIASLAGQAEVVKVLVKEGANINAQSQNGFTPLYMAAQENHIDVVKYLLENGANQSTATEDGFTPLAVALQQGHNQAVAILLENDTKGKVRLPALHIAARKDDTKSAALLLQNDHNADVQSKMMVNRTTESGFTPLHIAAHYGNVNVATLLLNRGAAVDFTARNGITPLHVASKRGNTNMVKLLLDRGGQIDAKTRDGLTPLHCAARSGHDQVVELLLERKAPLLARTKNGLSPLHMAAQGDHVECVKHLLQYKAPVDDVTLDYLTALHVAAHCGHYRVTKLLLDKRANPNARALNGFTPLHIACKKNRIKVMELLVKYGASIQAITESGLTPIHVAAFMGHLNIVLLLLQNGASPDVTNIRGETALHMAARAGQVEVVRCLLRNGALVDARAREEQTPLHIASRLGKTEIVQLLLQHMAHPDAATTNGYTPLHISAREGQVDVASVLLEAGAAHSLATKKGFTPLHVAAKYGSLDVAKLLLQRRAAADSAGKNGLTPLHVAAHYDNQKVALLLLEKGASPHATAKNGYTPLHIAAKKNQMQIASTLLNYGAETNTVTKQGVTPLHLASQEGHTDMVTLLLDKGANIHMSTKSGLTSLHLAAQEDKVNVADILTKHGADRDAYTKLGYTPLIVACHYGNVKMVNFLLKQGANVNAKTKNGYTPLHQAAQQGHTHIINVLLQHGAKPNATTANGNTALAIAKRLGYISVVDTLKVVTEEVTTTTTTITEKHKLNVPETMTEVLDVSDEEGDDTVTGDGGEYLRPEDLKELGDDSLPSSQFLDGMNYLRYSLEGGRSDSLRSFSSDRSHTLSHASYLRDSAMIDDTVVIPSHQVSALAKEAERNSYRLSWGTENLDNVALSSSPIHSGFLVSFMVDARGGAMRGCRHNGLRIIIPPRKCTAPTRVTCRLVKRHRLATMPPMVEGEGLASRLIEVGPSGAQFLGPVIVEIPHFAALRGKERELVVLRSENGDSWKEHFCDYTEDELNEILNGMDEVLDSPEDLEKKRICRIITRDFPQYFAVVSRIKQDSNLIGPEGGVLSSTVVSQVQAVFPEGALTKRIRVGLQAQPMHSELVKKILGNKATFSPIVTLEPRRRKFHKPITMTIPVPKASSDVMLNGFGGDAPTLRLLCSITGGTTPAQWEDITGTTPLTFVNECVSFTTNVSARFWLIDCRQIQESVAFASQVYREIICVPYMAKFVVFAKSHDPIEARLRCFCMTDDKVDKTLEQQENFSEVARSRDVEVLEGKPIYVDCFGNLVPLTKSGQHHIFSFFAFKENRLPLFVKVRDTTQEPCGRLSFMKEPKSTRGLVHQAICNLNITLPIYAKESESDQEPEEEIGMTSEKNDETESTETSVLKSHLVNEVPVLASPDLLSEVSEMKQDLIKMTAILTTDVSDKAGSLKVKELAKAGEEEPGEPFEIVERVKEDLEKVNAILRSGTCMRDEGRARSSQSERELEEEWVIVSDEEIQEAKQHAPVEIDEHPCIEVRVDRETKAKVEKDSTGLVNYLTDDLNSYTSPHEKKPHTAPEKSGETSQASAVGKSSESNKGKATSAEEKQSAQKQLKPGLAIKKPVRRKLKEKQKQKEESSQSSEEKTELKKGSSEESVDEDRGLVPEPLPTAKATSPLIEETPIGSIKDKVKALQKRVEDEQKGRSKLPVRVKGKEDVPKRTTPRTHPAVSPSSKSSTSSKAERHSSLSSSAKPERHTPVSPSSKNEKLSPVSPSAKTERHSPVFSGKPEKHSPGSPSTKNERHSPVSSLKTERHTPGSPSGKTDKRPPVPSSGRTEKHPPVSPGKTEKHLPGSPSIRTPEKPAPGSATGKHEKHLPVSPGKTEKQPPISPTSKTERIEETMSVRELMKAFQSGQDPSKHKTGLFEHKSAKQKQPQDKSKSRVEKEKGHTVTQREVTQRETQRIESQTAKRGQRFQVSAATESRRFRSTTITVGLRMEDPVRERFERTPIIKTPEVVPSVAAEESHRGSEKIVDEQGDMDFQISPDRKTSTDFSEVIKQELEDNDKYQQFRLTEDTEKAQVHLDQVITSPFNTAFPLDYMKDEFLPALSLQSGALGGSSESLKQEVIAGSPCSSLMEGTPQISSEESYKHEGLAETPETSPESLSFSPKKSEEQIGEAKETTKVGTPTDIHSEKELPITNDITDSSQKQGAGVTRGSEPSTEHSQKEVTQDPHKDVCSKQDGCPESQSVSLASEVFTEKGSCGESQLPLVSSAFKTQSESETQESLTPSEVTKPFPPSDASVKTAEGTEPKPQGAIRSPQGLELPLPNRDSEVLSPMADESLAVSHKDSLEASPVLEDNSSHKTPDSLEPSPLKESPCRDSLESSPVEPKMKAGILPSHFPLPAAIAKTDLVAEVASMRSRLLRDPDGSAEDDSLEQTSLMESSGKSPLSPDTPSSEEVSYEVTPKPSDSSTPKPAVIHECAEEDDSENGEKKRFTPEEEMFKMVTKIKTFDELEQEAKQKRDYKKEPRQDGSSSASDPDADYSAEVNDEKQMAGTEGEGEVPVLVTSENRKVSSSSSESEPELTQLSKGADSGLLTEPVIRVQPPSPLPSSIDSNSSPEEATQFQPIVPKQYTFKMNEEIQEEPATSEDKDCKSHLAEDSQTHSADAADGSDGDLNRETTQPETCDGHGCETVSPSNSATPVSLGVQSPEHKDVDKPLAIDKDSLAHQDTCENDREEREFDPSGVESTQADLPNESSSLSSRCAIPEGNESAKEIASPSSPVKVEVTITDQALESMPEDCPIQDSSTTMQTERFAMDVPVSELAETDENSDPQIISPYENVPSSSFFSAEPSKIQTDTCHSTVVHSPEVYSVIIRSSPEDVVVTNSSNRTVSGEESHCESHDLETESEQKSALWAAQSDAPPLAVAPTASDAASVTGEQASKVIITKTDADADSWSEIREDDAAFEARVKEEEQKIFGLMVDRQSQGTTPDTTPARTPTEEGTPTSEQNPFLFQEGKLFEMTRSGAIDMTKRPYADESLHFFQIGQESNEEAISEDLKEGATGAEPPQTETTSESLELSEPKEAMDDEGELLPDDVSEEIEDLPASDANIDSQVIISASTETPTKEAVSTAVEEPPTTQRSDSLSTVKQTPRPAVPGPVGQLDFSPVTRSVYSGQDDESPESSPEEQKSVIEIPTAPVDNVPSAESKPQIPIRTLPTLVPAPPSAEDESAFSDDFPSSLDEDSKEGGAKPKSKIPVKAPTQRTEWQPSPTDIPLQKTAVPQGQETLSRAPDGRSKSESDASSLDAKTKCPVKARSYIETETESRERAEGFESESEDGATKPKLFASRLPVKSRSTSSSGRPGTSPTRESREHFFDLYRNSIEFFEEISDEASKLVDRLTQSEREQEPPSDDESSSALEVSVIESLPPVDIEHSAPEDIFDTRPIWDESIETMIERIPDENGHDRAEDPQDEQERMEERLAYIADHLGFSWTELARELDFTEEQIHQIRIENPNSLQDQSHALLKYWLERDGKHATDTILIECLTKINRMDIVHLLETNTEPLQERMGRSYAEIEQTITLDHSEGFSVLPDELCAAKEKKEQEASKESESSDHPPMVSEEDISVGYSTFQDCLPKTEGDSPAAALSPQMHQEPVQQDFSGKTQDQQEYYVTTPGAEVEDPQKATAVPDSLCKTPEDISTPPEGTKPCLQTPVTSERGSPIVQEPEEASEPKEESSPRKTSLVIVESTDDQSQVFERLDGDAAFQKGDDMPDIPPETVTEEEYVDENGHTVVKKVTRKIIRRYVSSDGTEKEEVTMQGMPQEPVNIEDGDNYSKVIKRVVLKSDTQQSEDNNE

KRT4 = KRT4 (Homo sapiens, UniProt P19013); experiment: direct LC-MS/MS profiling of modified tryptic peptides; type: cell-based; conditions: covalent at Cys42; H358 cells, […] AMG510, […] h (methods print […] h)
Chain of KRT4 (P19013 whole entry): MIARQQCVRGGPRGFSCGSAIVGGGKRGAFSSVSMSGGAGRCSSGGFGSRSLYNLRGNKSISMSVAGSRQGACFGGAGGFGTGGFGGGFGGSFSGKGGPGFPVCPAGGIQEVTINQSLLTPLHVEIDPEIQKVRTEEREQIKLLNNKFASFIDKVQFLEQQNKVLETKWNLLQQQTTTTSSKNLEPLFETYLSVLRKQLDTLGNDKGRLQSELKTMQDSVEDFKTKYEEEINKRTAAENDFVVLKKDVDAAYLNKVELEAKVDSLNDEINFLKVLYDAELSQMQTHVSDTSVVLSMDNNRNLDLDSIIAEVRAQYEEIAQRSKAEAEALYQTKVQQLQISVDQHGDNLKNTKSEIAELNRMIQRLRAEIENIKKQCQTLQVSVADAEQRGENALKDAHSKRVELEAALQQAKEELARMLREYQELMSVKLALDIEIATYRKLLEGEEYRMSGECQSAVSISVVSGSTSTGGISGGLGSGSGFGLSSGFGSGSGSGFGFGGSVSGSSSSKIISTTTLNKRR

ALDOA = molecular target: T2, ALDOA (Homo sapiens, UniProt P04075); experiment: LC-MS/MS site mapping; type: cell-based; conditions: covalent at Cys339; H358 cells treated with AMG510
T2 sequence (P04075 2-364): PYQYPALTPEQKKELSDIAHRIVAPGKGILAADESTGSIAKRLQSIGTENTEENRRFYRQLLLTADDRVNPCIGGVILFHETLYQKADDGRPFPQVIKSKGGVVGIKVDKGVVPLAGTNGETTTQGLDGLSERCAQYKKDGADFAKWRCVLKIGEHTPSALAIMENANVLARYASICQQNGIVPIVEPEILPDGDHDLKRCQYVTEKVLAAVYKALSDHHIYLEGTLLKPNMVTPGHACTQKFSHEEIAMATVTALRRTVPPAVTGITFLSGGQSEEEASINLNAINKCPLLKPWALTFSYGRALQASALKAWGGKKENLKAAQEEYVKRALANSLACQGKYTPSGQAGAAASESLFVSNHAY

SPTLC2 = molecular target: T3, SPTLC2 (Homo sapiens, UniProt O15270); experiment: direct LC-MS/MS profiling of modified tryptic peptides; type: cell-based; conditions: covalent at Cys99; H358 cells, […] AMG510, […] h (methods print […] h)
T3 sequence (O15270 1-562): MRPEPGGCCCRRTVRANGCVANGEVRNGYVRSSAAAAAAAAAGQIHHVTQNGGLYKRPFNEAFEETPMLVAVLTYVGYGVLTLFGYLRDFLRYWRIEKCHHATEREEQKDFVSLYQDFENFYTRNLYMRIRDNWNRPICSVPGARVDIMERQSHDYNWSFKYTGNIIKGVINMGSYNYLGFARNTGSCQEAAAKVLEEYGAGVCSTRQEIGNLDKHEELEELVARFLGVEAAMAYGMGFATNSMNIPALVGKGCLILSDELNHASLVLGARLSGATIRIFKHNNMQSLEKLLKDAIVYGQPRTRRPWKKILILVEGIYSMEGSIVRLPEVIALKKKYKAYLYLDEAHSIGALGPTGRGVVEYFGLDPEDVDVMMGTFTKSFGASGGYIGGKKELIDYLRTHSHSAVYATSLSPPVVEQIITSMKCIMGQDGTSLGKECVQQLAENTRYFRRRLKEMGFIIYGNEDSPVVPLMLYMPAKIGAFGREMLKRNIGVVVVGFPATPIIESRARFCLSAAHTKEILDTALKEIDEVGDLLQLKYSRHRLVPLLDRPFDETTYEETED

S100A16 = molecular target: T4, S100A16 (Homo sapiens, UniProt Q96FQ6); experiment: as above; type: cell-based; conditions: covalent at Cys4; H358 cells, […] AMG510, […] h (methods print […] h)
T4 sequence (Q96FQ6 1-103): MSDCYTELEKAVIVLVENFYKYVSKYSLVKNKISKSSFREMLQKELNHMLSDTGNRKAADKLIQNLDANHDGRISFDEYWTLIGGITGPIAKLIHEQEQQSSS

ANXA2 = ANXA2 (Homo sapiens, UniProt P07355); experiment: as above; type: cell-based; conditions: covalent at Cys9; H358 cells, […] AMG510, […] h (methods print […] h)
Chain of ANXA2 (P07355 2-339): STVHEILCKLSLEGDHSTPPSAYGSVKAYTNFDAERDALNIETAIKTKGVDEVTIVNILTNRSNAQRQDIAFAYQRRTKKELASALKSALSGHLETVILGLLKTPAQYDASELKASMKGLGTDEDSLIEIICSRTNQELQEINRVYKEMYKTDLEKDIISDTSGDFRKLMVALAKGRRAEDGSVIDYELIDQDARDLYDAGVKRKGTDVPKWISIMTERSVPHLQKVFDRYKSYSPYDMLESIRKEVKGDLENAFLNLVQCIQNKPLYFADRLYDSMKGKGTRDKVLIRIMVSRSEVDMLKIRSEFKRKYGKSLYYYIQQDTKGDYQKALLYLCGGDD

C=CC(=O)N1CCN(c2nc(=O)n(-c3c(C)ccnc3C(C)C)c3nc(-c4c(O)cccc4F)c(F)cc23)[C@@H](C)C1 [AMG510]
direct LC-MS/MS profiling of modified tryptic peptides (HMOX2): off-targets that were identified in previous studies (RTN4 C1101 and HMOX2 C282)
anti-AMG510 peptide IP and LC-MS/MS of heart tissue (Ank2; ANK2): Ank2 was modified by AMG510 at Cys3737 in the mouse heart tissue
direct LC-MS/MS profiling of modified tryptic peptides (KRT4): differentiating epithelia cell markers (KRT4 C42)
LC-MS/MS site mapping (ALDOA): We first confirmed that Cys339 was also endogenously modified by AMG510 in H358 cells
direct LC-MS/MS profiling of modified tryptic peptides (SPTLC2): They included enzymes (PLOD3 C691, RPE C5, SPTLC2 C99, UBE2O C370, and TK1 C3)
direct LC-MS/MS profiling of modified tryptic peptides (S100A16): transporters (RAE1 C106, S100A16C4, VDAC2 C91 and C225)
direct LC-MS/MS profiling of modified tryptic peptides (ANXA2): multifunctional membrane-binding protein (ANXA2 C9)

From PMC9942120 (iScience, 2023)
